Laboratory results published in patent US12577248B2, “Substituted [1,2,4]triazolo[1,5-a]pyrazines as spleen tyrosine kinase inhibitors” (NANJING RUIJIE PHARMA CO., LTD., priority 2020, dated 2026).
One block for each compound: values may come before it.

How the values were obtained:
[1] = molecular target: SYK kinase (Homo sapiens, UniProt P43405); assay: SYK kinase assay (HTRF KinEASE-TK); assay type: biochemical; details: class symbols, read-out: Syk inhibition IC50
Procedure: A homogeneous time-resolved fluorescence (HTRF) assay was performed to assess the potential inhibitory effect of compounds on SYK kinase. The HTRF KinEASE-TK kit (Cisbio) was used. During the step, kinase will phosphorylate the substrate, and the resulting fluorescence signal is proportional to the phosphorylation level. The assay was performed in the following steps: First, the testing compounds were diluted 1:3 in succession in DMSO. The 1× kinase buffer contained 1 volume of 5× enzymatic buffer with 4 volumes of distilled water, 5 mM MgCl2, 1 mM MnCl2, and 1 mM DTT. The assays were assembled in 384 well plates (784075, Greiner) where 10 nl of compound solutions were added into each well, and the plates were centrifuged at 1000 g for 1 min. Then, 5 μl of 2×SYK in 1× kinase buffer were added to each well. The plates were centrifuged at 1000 g for 30 s and then incubated at room temperature for 10 min. The reaction was initiated by adding […] of premixed 2×TK-substrate-biotin and ATP mixture in 1× kinase buffer to the assay plates. The plates were centrifuged at 1000 g for 30 s and incubated at room temperature for 30 min. Phosphorylation was detected by adding 5 μl of 4×Sa-XL 665 in HTRF detection buffer into each well of the assay plates. The plates were centrifuged plates at 1000 g for 30 sec, and then incubated at room temperature for 1 h. Finally, the plates were read on an Envision 2104 plate reader (PerkinElmer) and the fluorescence signal was measured at 615 nm (Cryptate) and 665 nm (XL665).
A ratio (665/615 nm) was calculated for each well. The inhibition ratio was calculated as follow: […]
IC50 was calculated by fitting % Inhibition values and log of compound concentrations to nonlinear regression (dose response−variable slope) with GraphPad 6.0.

[2] = molecular target: T1, Ba/F3-TEL-SYK cells (Homo sapiens, UniProt P43405); assay: Ba/F3-TEL-SYK cell-based assay (CellTiter-Glo proliferation); details: 72 hr, read-out: BaF3 Cell assay IC50
T1 construct: fused on or other part: N-terminal part of TEL (ETV6) with its oligomerising PNT/SAM domain, fused before the SYK part that carries the kinase domain; P41212 (Transcription factor ETV6)
Procedure: CellTiter-Glo® Luminescent Cell Viability Assay was used to determine the number of viable cells in culture based on quantitation of the ATP present, as an indicator of metabolically active cells. The assay was performed in the following steps: First, the testing compounds were dissolved in DMSO to make a stock solution. The stocks (10 mM) were then diluted to varying concentrations: […], 0.305 and 0.102 μM. An aliquot of 0.2 μl of diluted compounds were added to the 384 well assay plate. Second, added 40 μl of cell suspension with 800 Ba/F3-TEL-SYK cells into each well and incubated the plate at 37° C., 5% CO2 for 72 hr. Then, added 20 μl Cell Titer-Glo Reagent into each well of the cell culture plate. Mixed the contents for 2 min on an orbital shaker to lyse cells, and rest the plate at room temperature for 30 min. Finally, luminescence values were obtained using an Envision 2104 plate reader (PerkinElmer) and calculated the average data and Standard Deviation (SD) of DMSO and Reference (GS-9973, 1 μM) as high control and low control. To determine the IC50 value, fit the data using non-linear regression equation.

[3] = In vivo pharmacokinetic analysis, single dose, ICR mice; details: mouse, male, plasma; for AUC(0-inf) / AUC(0-t) / Cmax / Tmax / half-life: single dose; for bioavailability: PO 10 mg/kg vs IV 2 mg/kg, read-out: F % (bioavailability)
Procedure: This is a single-dose study in ICR mice (male, n=9/administration) with intravenous and oral administration. Compound concentrations in plasma were measured and calculated for pharmacokinetic (PK) analysis via WinNonLin 6.4.

Compound: COc1cc(Nc2nc(-c3cncc(N)n3)cn3ncnc23)ccc1N1CCN(C2COC2)CC1 [I56, 6-(6-aminopyrazin-2-yl)-N-(3-methoxy-4-(4-(oxetan-3-yl)piperazin-1-yl)phenyl)-[1,2,4]triazolo[1,5-a]pyrazin-8-amine]
IC50 [1]: 50 to 500 nM
GI50 [2]: 500 to 5000 nM

Compound: c1nc2c(Nc3ccc(N4CC5(COC5)C4)cc3)nc(-c3ccc4cn[nH]c4c3)cn2n1 [I59, N-(4-(2-oxa-6-azaspiro[3.3]heptan-6-yl)phenyl)-6-(1H-indazol-6-yl)-[1,2,4]triazolo[1,5-a]pyrazin-8-amine]
IC50 [1]: 50 to 500 nM
GI50 [2]: 50 to 500 nM

Compound: COc1cc(Nc2nc(-c3ccc4cn[nH]c4c3)cn3ncnc23)ccc1N1CC2(COC2)C1 [I60, 6-(1H-indazol-6-yl)-N-(3-methoxy-4-(2-oxa-6-azaspiro[3.3]heptan-6-yl)phenyl)-[1,2,4]triazolo[1,5-a]pyrazin-8-amine]
IC50 [1]: 50 to 500 nM
GI50 [2]: 50 to 500 nM

Compound: CC(C)N1C[C@@H]2C[C@@H]1CN2c1ccc(Nc2nc(-c3ccc4[nH]ncc4c3)cn3ncnc23)cc1 [I69, 6-(1H-indazol-5-yl)-N-(4-((1S,4R)-5-isopropyl-2,5-diazabicyclo[2.2.1]heptan-2-yl)phenyl)-[1,2,4]triazolo[1,5-a]pyrazin-8-amine]
IC50 [1]: 50 to 500 nM
GI50 [2]: 500 to 5000 nM

Compound: CC(C)N1C[C@@H]2C[C@@H]1CN2c1ccc(Nc2nc(-c3ccc4[nH]ccc4c3)cn3ncnc23)cc1 [I70, 6-(1H-indol-5-yl)-N-(4-((1S,4R)-5-isopropyl-2,5-diazabicyclo[2.2.1]heptan-2-yl)phenyl)-[1,2,4]triazolo[1,5-a]pyrazin-8-amine]
IC50 [1]: 50 to 500 nM
GI50 [2]: 500 to 5000 nM

Compound: CC(C)Oc1cc(Nc2nc(-c3ccc4cn[nH]c4c3)cn3ncnc23)ccc1N1CCOCC1 [I75, 6-(1H-indazol-6-yl)-N-(3-isopropoxy-4-morpholinophenyl)-[1,2,4]triazolo[1,5-a]pyrazin-8-amine]
IC50 [1]: 50 to 500 nM
GI50 [2]: 500 to 5000 nM

Compound: FC(F)(F)Oc1cc(Nc2nc(-c3ccc4cc[nH]c4c3)cn3ncnc23)ccc1N1CC2CC1CN2C1COC1 (stereo not shown) [I77, 6-(1H-indol-6-yl)-N-(4-(5-(oxetan-3-yl)-2,5-diazabicyclo[2.2.1]heptan-2-yl)-3-(trifluoromethoxy)phenyl)-[1,2,4]triazolo[1,5-a]pyrazin-8-amine]
IC50 [1]: 50 to 500 nM
GI50 [2]: > 5000 nM

Compound: FC(F)Oc1cc(Nc2nc(-c3ccc4cc[nH]c4c3)cn3ncnc23)ccc1N1CC2CC1CN2C1COC1 (stereo not shown) [I78, N-(3-(difluoromethoxy)-4-(5-(oxetan-3-yl)-2,5-diazabicyclo[2.2.1]heptan-2-yl)phenyl)-6-(1H-indol-6-yl)-[1,2,4]triazolo[1,5-a]pyrazin-8-amine]
IC50 [1]: ≤ 50 nM
GI50 [2]: 500 to 5000 nM

Compound: CCOc1cc(Nc2nc(-c3ccc4cc[nH]c4c3)cn3ncnc23)ccc1N1CC2CC1CN2C1COC1 (stereo not shown) [I79, N-(3-ethoxy-4-(5-(oxetan-3-yl)-2,5-diazabicyclo[2.2.1]heptan-2-yl)phenyl)-6-(1H-indol-6-yl)-[1,2,4]triazolo[1,5-a]pyrazin-8-amine]
IC50 [1]: ≤ 50 nM
GI50 [2]: 50 to 500 nM

Compound: CC(C)Oc1cc(Nc2nc(-c3ccc4cc[nH]c4c3)cn3ncnc23)ccc1N1CC2CC1CN2C1COC1 (stereo not shown) [I81, 6-(1H-indol-6-yl)-N-(3-isopropoxy-4-(5-(oxetan-3-yl)-2,5-diazabicyclo[2.2.1]heptan-2-yl)phenyl)-[1,2,4]triazolo[1,5-a]pyrazin-8-amine]
IC50 [1]: 50 to 500 nM
GI50 [2]: 500 to 5000 nM

Compound: c1nc2c(Nc3ccc(N4CC5CC4CN5C4COC4)cc3)nc(-c3ccc4cc[nH]c4c3)cn2n1 (stereo not shown) [I82, 6-(1H-indol-6-yl)-N-(4-(5-(oxetan-3-yl)-2,5-diazabicyclo[2.2.1]heptan-2-yl)phenyl)-[1,2,4]triazolo[1,5-a]pyrazin-8-amine]
IC50 [1]: ≤ 50 nM
GI50 [2]: 500 to 5000 nM

Further lines, results first:

IC50 [1]: ≤ 50 nM
GI50 [2]: ≤ 50 nM
AUC(0-inf) ([3]; IV Administration (2 mg/kg)): 983 ng·h/mL
AUC(0-t) ([3]; IV Administration (2 mg/kg)): 980 ng·h/mL
Cmax ([3]; IV Administration (2 mg/kg)): 2520 ng/mL
Tmax ([3]; IV Administration (2 mg/kg)): 4.8 min
half-life ([3]; IV Administration (2 mg/kg)): 15 min
AUC(0-inf) ([3]; PO Administration (10 mg/kg)): 448 ng·h/mL
AUC(0-t) ([3]; PO Administration (10 mg/kg)): 381 ng·h/mL
Cmax ([3]; PO Administration (10 mg/kg)): 88.8 ng/mL
Tmax ([3]; PO Administration (10 mg/kg)): 30 min
half-life ([3]; PO Administration (10 mg/kg)): 54 min
bioavailability [3]: 7.77%
Compound: COc1cc(Nc2nc(-c3ccc4cn[nH]c4c3)cn3ncnc23)ccc1N1CCOCC1 [I1, 6-(1H-indazol-6-yl)-N-(3-methoxy-4-morpholinophenyl)-[1,2,4]triazolo[1,5-a]pyrazin-8-amine]

IC50 [1]: ≤ 50 nM
GI50 [2]: ≤ 50 nM
AUC(0-inf) ([3]; IV Administration (2 mg/kg)): 1010 ng·h/mL
AUC(0-t) ([3]; IV Administration (2 mg/kg)): 1010 ng·h/mL
Cmax ([3]; IV Administration (2 mg/kg)): 1870 ng/mL
Tmax ([3]; IV Administration (2 mg/kg)): 4.8 min
half-life ([3]; IV Administration (2 mg/kg)): 34.2 min
AUC(0-inf) ([3]; PO Administration (10 mg/kg)): 2260 ng·h/mL
AUC(0-t) ([3]; PO Administration (10 mg/kg)): 1960 ng·h/mL
Cmax ([3]; PO Administration (10 mg/kg)): 696 ng/mL
Tmax ([3]; PO Administration (10 mg/kg)): 15 min
half-life ([3]; PO Administration (10 mg/kg)): 168 min
bioavailability [3]: 38.9%
Compound: COc1cc(Nc2nc(-c3ccc4cc[nH]c4c3)cn3ncnc23)ccc1N1CCOCC1 [I2, 6-(1H-indol-6-yl)-N-(3-methoxy-4-morpholinophenyl)-[1,2,4]triazolo[1,5-a]pyrazin-8-amine]

IC50 [1]: ≤ 50 nM
GI50 [2]: 50 to 500 nM
AUC(0-inf) ([3]; IV Administration (2 mg/kg)): 11400 ng·h/mL
AUC(0-t) ([3]; IV Administration (2 mg/kg)): 11200 ng·h/mL
Cmax ([3]; IV Administration (2 mg/kg)): 8810 ng/mL
Tmax ([3]; IV Administration (2 mg/kg)): 4.8 min
half-life ([3]; IV Administration (2 mg/kg)): 99 min
AUC(0-inf) ([3]; PO Administration (10 mg/kg)): 28500 ng·h/mL
AUC(0-t) ([3]; PO Administration (10 mg/kg)): 28500 ng·h/mL
Cmax ([3]; PO Administration (10 mg/kg)): 2160 ng/mL
Tmax ([3]; PO Administration (10 mg/kg)): 240 min
half-life ([3]; PO Administration (10 mg/kg)): 100 min
bioavailability [3]: 50.8%
Compound: c1nc2c(Nc3ccc(N4CCOCC4)cc3)nc(-c3ccc4cc[nH]c4c3)cn2n1 [I10, 6-(1H-indol-6-yl)-N-(4-morpholinophenyl)-[1,2,4]triazolo[1,5-a]pyrazin-8-amine]

IC50 [1]: ≤ 50 nM
GI50 [2]: ≤ 50 nM
AUC(0-inf) ([3]; IV Administration (2 mg/kg)): 429 ng·h/mL
AUC(0-t) ([3]; IV Administration (2 mg/kg)): 428 ng·h/mL
Cmax ([3]; IV Administration (2 mg/kg)): 1320 ng/mL
Tmax ([3]; IV Administration (2 mg/kg)): 4.8 min
half-life ([3]; IV Administration (2 mg/kg)): 12.6 min
AUC(0-inf) ([3]; PO Administration (10 mg/kg)): 125 ng·h/mL
AUC(0-t) ([3]; PO Administration (10 mg/kg)): 115 ng·h/mL
Cmax ([3]; PO Administration (10 mg/kg)): 108 ng/mL
Tmax ([3]; PO Administration (10 mg/kg)): 15 min
half-life ([3]; PO Administration (10 mg/kg)): 28.8 min
bioavailability [3]: 5.38%
Compound: COc1cc(Nc2nc(-c3ccc4cn[nH]c4c3)cn3ncnc23)ccc1N1CCC(C)(O)CC1 [I22, 1-(4-((6-(1H-indazol-6-yl)-[1,2,4]triazolo[1,5-a]pyrazin-8-yl)amino)-2-methoxyphenyl)-4-methylpiperidin-4-ol]

IC50 [1]: ≤ 50 nM
GI50 [2]: 50 to 500 nM
Compound: c1nc2c(Nc3ccc(N4CC5(COC5)C4)cc3)nc(-c3ccc4cc[nH]c4c3)cn2n1 [I61, N-(4-(2-oxa-6-azaspiro[3.3]heptan-6-yl)phenyl)-6-(1H-indol-6-yl)-[1,2,4]triazolo[1,5-a]pyrazin-8-amine]

IC50 [1]: ≤ 50 nM
GI50 [2]: 50 to 500 nM
Compound: COc1cc(Nc2nc(-c3ccc4c(c3)N=CC4)cn3ncnc23)ccc1N1CC2(COC2)C1 [I62, 6-(3H-indol-6-yl)-N-(3-methoxy-4-(2-oxa-6-azaspiro[3.3]heptan-6-yl)phenyl)-[1,2,4]triazolo[1,5-a]pyrazin-8-amine]

IC50 [1]: ≤ 50 nM
GI50 [2]: 50 to 500 nM
Compound: CCOc1cc(Nc2nc(-c3ccc4cn[nH]c4c3)cn3ncnc23)ccc1N1CCOCC1 [I73, N-(3-ethoxy-4-morpholinophenyl)-6-(1H-indazol-6-yl)-[1,2,4]triazolo[1,5-a]pyrazin-8-amine]

IC50 [1]: ≤ 50 nM
GI50 [2]: 50 to 500 nM
Compound: COc1cc(Nc2nc(-c3ccc4cc[nH]c4c3)cn3ncnc23)ccc1N1CC2CC1CN2C1COC1 (stereo not shown) [I76, 6-(1H-indol-6-yl)-N-(3-methoxy-4-(5-(oxetan-3-yl)-2,5-diazabicyclo[2.2.1]heptan-2-yl)phenyl)-[1,2,4]triazolo[1,5-a]pyrazin-8-amine]
